In the NIST ThermoML archive (doi:10.1021/je900021g):
Numbers after ± are expanded uncertainties.

Conditions: Crystal; DTA

Structure (SMILES): O=C(O)CCC(=O)O [butanedioic acid]
- Normal melting temperature: 188 ± 1 °C
